Experimental data reported in ChEMBL document CHEMBL1201862, “PubChem BioAssay data set” (2004).
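Dose response: 5 concentrations. Exposure: 48 h. Format: 96-well plates. Endpoint: linear interpolation; highest concentration if not reached. Here, GI50 denotes the concentration required for 50% inhibition of growth.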 Calls of active or inactive are those of the source. No stated cut-off is given here; in the data, active = GI50 up to about 1.1 µM and inactive = higher.

Tests used:
Test in all cases: NCI-60 cell line screen, 48 h
[1] = test system: 786-0
[2] = test system: A498
[3] = test system: A549
[4] = test system: ACHN
[5] = test system: BT-549
[6] = test system: CAKI-1
[7] = test system: COLO 205
[8] = test system: DLD-1
[9] = test system: DMS-114
[10] = test system: DU-145
[11] = test system: EKVX
[12] = test system: HCC 2998
[13] = test system: HCT-116
[14] = test system: HCT-15
[15] = test system: HL-60
[16] = test system: HOP-62
[17] = test system: HOP-92
[18] = test system: HT-29
[19] = test system: Hs-578T
[20] = test system: IGROV-1
[21] = test system: K562
[22] = test system: KM-20L2
[23] = test system: KM12
[24] = test system: LOX IMVI
[25] = test system: LXFL 529
[26] = test system: M14
[27] = test system: M19-MEL
[28] = test system: MCF7
[29] = test system: MDA-MB-231
[30] = test system: MDA-MB-435
[31] = test system: MDA-N
[32] = test system: MOLT-4
[33] = test system: Malme-3M
[34] = test system: NCI-H226
[35] = test system: NCI-H23
[36] = test system: NCI-H460
[37] = test system: NCI-H522
[38] = test system: NCI/ADR-RES
[39] = test system: OVCAR-3
[40] = test system: OVCAR-4
[41] = test system: OVCAR-5
[42] = test system: OVCAR-8
[43] = test system: PC-3
[44] = test system: RPMI-8226
[45] = test system: RXF 631
[46] = test system: SF-268
[47] = test system: SF-295
[48] = test system: SF-539
[49] = test system: SK-MEL-28
[50] = test system: SK-MEL-2
[51] = test system: SK-MEL-5
[52] = test system: SK-OV-3
[53] = test system: SN12C
[54] = test system: SNB-19
[55] = test system: SNB-75
[56] = test system: SR
[57] = test system: SW-620
[58] = test system: T47D
[59] = test system: TK-10
[60] = test system: U-251
[61] = test system: UACC-257
[62] = test system: UACC-62
[63] = test system: UO-31
[64] = test system: XF498
[65] = test system: CCRF-CEM
[66] = test system: DMS-273
[67] = test system: HOP-18
[68] = test system: RXF 393

`O=c1oc2ccccc2c(O)c1C(C/C(CCN1CCCC1)=N/O)c1ccccc1` (stereo unspecified) was tested, and the GI50 [1] was > 100 µM (inactive), the GI50 [2] was > 100 µM (inactive) and the GI50 [3] was > 100 µM (inactive). For the same compound, the GI50 [4] was > 100 µM (inactive), the GI50 [5] was 31.7 µM (inactive) and the GI50 [6] was > 100 µM (inactive). For the same compound, the GI50 [7] was > 100 µM (inactive), the GI50 [8] was > 100 µM (inactive) and the GI50 [9] was > 100 µM (inactive). The GI50 [10] was > 100 µM (inactive), the GI50 [11] was > 100 µM (inactive) and the GI50 [12] was > 100 µM (inactive). The GI50 [13] was > 100 µM (inactive), the GI50 [14] was greater than 100 µM and the GI50 [15] was > 31.6 µM (inactive). The GI50 [16] was > 100 µM (inactive), the GI50 [17] was 56.4 µM (inactive) and the GI50 [18] was > 100 µM (inactive). For the same compound, the GI50 [19] was > 100 µM (inactive), the GI50 [20] was > 100 µM (inactive) and the GI50 [21] was > 31.6 µM (inactive). The GI50 [22] was > 100 µM (inactive), the GI50 [23] was > 100 µM (inactive) and the GI50 [24] was > 100 µM (inactive). The GI50 [25] was > 100 µM (inactive), the GI50 [26] was > 100 µM (inactive) and the GI50 [27] was > 100 µM (inactive). The GI50 [28] was > 100 µM (inactive), the GI50 [29] was > 100 µM (inactive) and the GI50 [30] was > 100 µM (inactive). For the same compound, the GI50 [31] was > 100 µM (inactive), the GI50 [32] was > 48 µM (inactive) and the GI50 [33] was > 100 µM (inactive). The GI50 [34] was > 100 µM (inactive), the GI50 [35] was > 100 µM (inactive) and the GI50 [36] was > 100 µM (inactive). The GI50 [37] was > 100 µM (inactive), the GI50 [38] was > 100 µM (inactive) and the GI50 [39] was > 100 µM (inactive). The GI50 [40] was > 100 µM (inactive), the GI50 [41] was > 100 µM (inactive) and the GI50 [42] was > 100 µM (inactive). For the same compound, the GI50 [43] was > 100 µM (inactive), the GI50 [44] was > 94.8 µM (inactive) and the GI50 [45] was > 100 µM (inactive). For the same compound, the GI50 [46] was > 100 µM (inactive), the GI50 [47] was > 100 µM (inactive) and the GI50 [48] was > 100 µM (inactive). The GI50 [49] was > 100 µM (inactive), the GI50 [50] was > 100 µM (inactive) and the GI50 [51] was > 100 µM (inactive). For the same compound, the GI50 [52] was > 100 µM (inactive), the GI50 [53] was > 100 µM (inactive) and the GI50 [54] was > 100 µM (inactive). The GI50 [55] was > 91.2 µM (inactive), the GI50 [56] was > 100 µM (inactive) and the GI50 [57] was > 100 µM (inactive). For the same compound, the GI50 [58] was 7.87 µM (inactive), the GI50 [59] was > 100 µM (inactive) and the GI50 [60] was > 100 µM (inactive). For the same compound, the GI50 [61] was > 100 µM (inactive), the GI50 [62] was > 100 µM (inactive) and the GI50 [63] was > 100 µM (inactive). For the same compound, the GI50 [64] was > 100 µM (inactive).
`O=C1c2ccccc2C2(Br)C(=O)c3ccccc3C12` (stereo unspecified) was tested, and the GI50 [1] was > 100 µM (inactive), the GI50 [3] was > 100 µM (inactive) and the GI50 [4] was > 100 µM (inactive). The GI50 [6] was > 100 µM (inactive), the GI50 [65] was 42.4 µM (inactive) and the GI50 [7] was > 100 µM (inactive). For the same compound, the GI50 [8] was > 100 µM (inactive), the GI50 [9] was > 100 µM (inactive) and the GI50 [66] was 19.6 µM (inactive). For the same compound, the GI50 [11] was > 100 µM (inactive), the GI50 [12] was > 100 µM (inactive) and the GI50 [14] was greater than 100 µM. For the same compound, the GI50 [15] was > 100 µM (inactive), the GI50 [67] was > 100 µM (inactive) and the GI50 [16] was > 100 µM (inactive). For the same compound, the GI50 [17] was > 100 µM (inactive), the GI50 [18] was > 100 µM (inactive) and the GI50 [20] was > 100 µM (inactive). The GI50 [21] was > 100 µM (inactive), the GI50 [22] was > 100 µM (inactive) and the GI50 [23] was > 100 µM (inactive). The GI50 [24] was 11.1 µM (inactive), the GI50 [25] was > 100 µM (inactive) and the GI50 [26] was > 100 µM (inactive). For the same compound, the GI50 [27] was > 100 µM (inactive), the GI50 [32] was > 100 µM (inactive) and the GI50 [33] was > 100 µM (inactive). For the same compound, the GI50 [35] was > 100 µM (inactive), the GI50 [36] was > 100 µM (inactive) and the GI50 [37] was > 100 µM (inactive). For the same compound, the GI50 [39] was > 100 µM (inactive), the GI50 [40] was > 100 µM (inactive) and the GI50 [41] was > 100 µM (inactive). The GI50 [42] was > 100 µM (inactive), the GI50 [44] was > 100 µM (inactive) and the GI50 [68] was > 100 µM (inactive). The GI50 [45] was 10.4 µM (inactive), the GI50 [46] was > 100 µM (inactive) and the GI50 [47] was > 100 µM (inactive). For the same compound, the GI50 [48] was > 100 µM (inactive), the GI50 [49] was > 100 µM (inactive) and the GI50 [50] was > 100 µM (inactive). The GI50 [51] was > 100 µM (inactive), the GI50 [52] was > 100 µM (inactive) and the GI50 [53] was > 100 µM (inactive). For the same compound, the GI50 [55] was > 100 µM (inactive), the GI50 [57] was > 100 µM (inactive) and the GI50 [59] was > 100 µM (inactive). The GI50 [60] was > 100 µM (inactive), the GI50 [61] was > 100 µM (inactive) and the GI50 [62] was > 100 µM (inactive). For the same compound, the GI50 [63] was > 100 µM (inactive).
